Biological target: T1, CtGH76 (Thermochaetoides thermophila, UniProt G0S5Y9)
T1 construct: gene CTHT_0025410; M1-M50 omitted (precursor 439 aa, predicted signal peptide M1-V60); N-terminal His10-tag removed with TEV; pET28a, E. coli SHuffle T7 Express; one molecule per asymmetric unit
Assay: X-ray crystal structure, crystal soaking
Format: binding
Conditions: soaked with mannose; subsites −4, −2 and +3

T1 sequence (G0S5Y9 entry or part of it): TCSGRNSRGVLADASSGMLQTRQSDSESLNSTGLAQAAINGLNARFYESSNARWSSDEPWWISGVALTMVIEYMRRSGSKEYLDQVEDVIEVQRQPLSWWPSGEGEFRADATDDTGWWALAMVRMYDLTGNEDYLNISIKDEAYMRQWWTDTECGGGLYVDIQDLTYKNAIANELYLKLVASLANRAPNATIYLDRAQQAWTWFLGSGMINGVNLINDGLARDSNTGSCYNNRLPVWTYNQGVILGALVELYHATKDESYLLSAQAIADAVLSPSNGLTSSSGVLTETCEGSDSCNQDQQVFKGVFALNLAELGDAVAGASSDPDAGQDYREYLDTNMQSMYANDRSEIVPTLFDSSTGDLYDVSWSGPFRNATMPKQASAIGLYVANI

Compound: OC[C@H]1OC(O)[C@@H](O)[C@@H](O)[C@@H]1O (stereo partly shown) [mannose]
- X-ray crystal structure, crystal soaking: Soaking with mannose in CtGH76 identified potential sugar-binding subsites analogous to CtDfg5

From paper PMC12295086, “CtGH76, a Glycoside Hydrolase 76 from Chaetomium thermophilum, with Elongated Glycan-Binding Canyon” (International Journal of Molecular Sciences, 2025)
